Experimental data: patent US20080249154A1, “Preventive and/or Therapeutic Agent For Disease In Which Mitochondrial Benzodiazephine Receptor Participates” (ONO PHARMACEUTICAL CO., LTD., priority 2003, published 2008)
pKi: −log10 of the molar value.

Target: T1, MBR (mitochondrial benzodiazepine receptor) (Rattus norvegicus, UniProt P16257)
T1 construct: from tissue; host or cells: male Wistar rat whole brain with cerebellum removed, crude membrane pellet
Assay: Receptor binding experiment: [3H]PK11195 competition binding, rat brain membrane preparation
Conditions: [3H]PK11195 0.5 or 1 nmol/L, 1 hour at room temperature, calculated by Cheng and Prusoff formula from KD and IC50, read-out: Ki value (inhibition constant)
Experimental: The affinity of the compounds in the present invention to MBR was determined using rat brain membrane preparation. In addition, the measurement in the present invention was improved the accuracy of measurement and the sensitivity of measurement for evaluating the compounds in the present invention as follows. After male Wister rats were decapitated to extirpate the whole brain and cerebellums were removed. They were homogenized in ice-cold 50 mmol/L Tris-HCL buffer solution (pH7.4), centrifuged and the obtained pellets were washed. The pellets resuspended and adjusted to about 1 mg/mL were used as rat brain membrane preparations for binding assay. The binding assay were experimented using [^3H]PK11195 as a MBR selective ligand. […]
To determine the amount of total binding in saturation binding experiment, membrane preparations, various concentrations of [^3H]PK11195, final concentration: 0.5 vol % dimethylsulfoxide (DMSO) and 50 mmol/L Tris-HCL buffer solution (pH7.4) were mixed (total volume 200 μL) and were incubated for 1 hour at room temperature. […] The filter was dried and then the radioactivity on the filter was measured by liquid scintillation counter. The data obtained by the binding experiments were Scatchard analyzed using analysis software, KELL (Ver.6, BIOSOFT) and the dissociation constant (KD value) was determined. […]

pKi: 7.00
SMILES: O=C(CCc1ccccc1)Nc1c2c(nn1-c1ccc(Cl)cc1)CSC2 [Example 8(8), N-[2-(4-chlorophenyl)-2,6-dihydro-4H-thieno[3,4-c]pyrazol-3-yl]-3-phenylpropanamide]
